Data: ChEMBL document CHEMBL1201862, “PubChem BioAssay data set” (2004)
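Values below derive from 48-hour exposures of cells grown in 96-well plates, with endpoints linearly interpolated between the two concentrations bracketing the appropriate inhibition level. The concentration for 50% growth inhibition is given as GI50.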 The source made the active and inactive calls. Rule as the data show it: active = GI50 up to about 1.1 µM and inactive = higher.

Key:
Test in all cases: NCI tumour cell line growth inhibition, 48 h
[1] = test system: EKVX
[2] = test system: HT-29
[3] = test system: KM12
[4] = test system: LOX IMVI
[5] = test system: UACC-62
[6] = test system: SF-268
[7] = test system: SK-MEL-2
[8] = test system: SK-MEL-28
[9] = test system: MOLT-4
[10] = test system: OVCAR-5
[11] = test system: SNB-75
[12] = test system: A549
[13] = test system: RPMI-8226
[14] = test system: PC-3
[15] = test system: UACC-257
[16] = test system: MDA-N
[17] = test system: M14
[18] = test system: RXF 393
[19] = test system: T47D
[20] = test system: BT-549

Compound	GI50 [1]	GI50 [2]	GI50 [3]	GI50 [4]	GI50 [5]	GI50 [6]	GI50 [7]	GI50 [8]	GI50 [9]	GI50 [10]	GI50 [11]	GI50 [12]	GI50 [13]	GI50 [14]	GI50 [15]	GI50 [16]	GI50 [17]	GI50 [18]	GI50 [19]	GI50 [20]
C=C/C(C)=C\CC1[C@](C)(O)CC[C@H]2C(C)(C)C(O)CC[C@]12C (stereo partly drawn)	> 100 µM (inactive)	44.3 µM (inactive)	> 100 µM (inactive)	> 100 µM (inactive)	> 100 µM (inactive)	> 100 µM (inactive)	> 100 µM (inactive)	> 100 µM (inactive)	33.8 µM (inactive)	> 100 µM (inactive)	> 100 µM (inactive)	> 100 µM (inactive)	42.6 µM (inactive)	70 µM (inactive)	> 100 µM (inactive)	> 100 µM (inactive)	> 100 µM (inactive)	95.1 µM (inactive)	–	–
CN(C)N1C(=C(C#N)C#N)C(c2ccccc2)CC1C#N (stereo not drawn)	> 100 µM (inactive)	> 100 µM (inactive)	> 100 µM (inactive)	> 100 µM (inactive)	> 100 µM (inactive)	> 100 µM (inactive)	> 100 µM (inactive)	> 100 µM (inactive)	> 100 µM (inactive)	> 100 µM (inactive)	57.8 µM (inactive)	> 100 µM (inactive)	> 100 µM (inactive)	> 100 µM (inactive)	> 100 µM (inactive)	> 100 µM (inactive)	> 100 µM (inactive)	> 100 µM (inactive)	> 100 µM (inactive)	–
N#Cc1c(Cl)c(C=O)c(=O)n2c1[nH]c1ccccc12	> 100 µM (inactive)	36 µM (inactive)	47.3 µM (inactive)	33.7 µM (inactive)	55.6 µM (inactive)	38.6 µM (inactive)	–	63.1 µM (inactive)	29 µM (inactive)	28.4 µM (inactive)	42.1 µM (inactive)	> 100 µM (inactive)	> 100 µM (inactive)	55.1 µM (inactive)	56.8 µM (inactive)	43.7 µM (inactive)	28.4 µM (inactive)	–	–	36.1 µM (inactive)
O=C(O)CN1CCN(CC(=O)N2CCN(C(=O)OCc3ccccc3)CC2)CCN(CC(=O)O)CCN(CC(=O)N2CCN(C(=O)OCc3ccccc3)CC2)CC1	> 100 µM (inactive)	> 100 µM (inactive)	> 100 µM (inactive)	> 100 µM (inactive)	> 100 µM (inactive)	–	> 100 µM (inactive)	> 100 µM (inactive)	> 100 µM (inactive)	> 100 µM (inactive)	> 100 µM (inactive)	> 100 µM (inactive)	> 100 µM (inactive)	> 100 µM (inactive)	> 100 µM (inactive)	–	> 100 µM (inactive)	–	> 100 µM (inactive)	> 100 µM (inactive)
COc1cc(-c2cc(OC)c(OC)c3ccc(Br)cc23)c2cc(Br)ccc2c1OC	85.9 µM (inactive)	19.2 µM (inactive)	–	19.3 µM (inactive)	21.9 µM (inactive)	20.2 µM (inactive)	25.4 µM (inactive)	20.1 µM (inactive)	45.7 µM (inactive)	15.9 µM (inactive)	–	20.3 µM (inactive)	21.4 µM (inactive)	20.6 µM (inactive)	46.1 µM (inactive)	22.5 µM (inactive)	23.2 µM (inactive)	15.1 µM (inactive)	31.6 µM (inactive)	–
CN(C)CCCOCCn1c2c(c3ccccc31)CCCC2	21.9 µM (inactive)	15 µM (inactive)	21.2 µM (inactive)	16.1 µM (inactive)	16.7 µM (inactive)	26.9 µM (inactive)	13.4 µM (inactive)	16.6 µM (inactive)	13.7 µM (inactive)	16.9 µM (inactive)	13.1 µM (inactive)	17 µM (inactive)	15.9 µM (inactive)	12.9 µM (inactive)	18.2 µM (inactive)	14.9 µM (inactive)	15.7 µM (inactive)	–	23.2 µM (inactive)	–
C=C1C(=O)O[C@H]2/C=C(/C)C3=CC(=O)[C@@](C)(C[C@@H](OC(=O)/C(C)=C\C)C12)O3 (stereo partly drawn)	–	0.265 µM (active)	2.86 µM (inactive)	0.272 µM (active)	0.891 µM (active)	1.88 µM (inactive)	3.02 µM (inactive)	0.708 µM (active)	1.87 µM (inactive)	2.4 µM (inactive)	8.69 µM (inactive)	4.05 µM (inactive)	0.0589 µM (active)	2.48 µM (inactive)	1.73 µM (inactive)	0.684 µM (active)	1.85 µM (inactive)	0.265 µM (active)	0.811 µM (active)	–
CCOC(=O)C1C(C)C2(C#N)C(=N)OC1(C)C2(C#N)C#N (stereo not drawn)	> 100 µM (inactive)	58.9 µM (inactive)	> 100 µM (inactive)	26.8 µM (inactive)	46 µM (inactive)	57.9 µM (inactive)	58.2 µM (inactive)	28.1 µM (inactive)	–	> 100 µM (inactive)	27.6 µM (inactive)	> 100 µM (inactive)	18.5 µM (inactive)	> 100 µM (inactive)	42.1 µM (inactive)	46.1 µM (inactive)	> 100 µM (inactive)	25.8 µM (inactive)	48.1 µM (inactive)	–
CC(=O)OCC1OC(n2c(-c3ccccc3)c(C(C)=O)c(-c3cccc4ccccc34)c(C#N)c2=S)C(OC(C)=O)C(OC(C)=O)C1OC(C)=O (stereo not drawn)	83.6 µM (inactive)	> 100 µM (inactive)	> 100 µM (inactive)	> 100 µM (inactive)	–	> 100 µM (inactive)	> 100 µM (inactive)	> 100 µM (inactive)	> 100 µM (inactive)	> 100 µM (inactive)	–	> 100 µM (inactive)	–	62.2 µM (inactive)	> 100 µM (inactive)	> 100 µM (inactive)	> 100 µM (inactive)	> 100 µM (inactive)	> 100 µM (inactive)	–
COc1ccc(-n2c(=O)c3nc[nH]c3n(-c3ccc(OC)cc3)c2=S)cc1	> 100 µM (inactive)	> 100 µM (inactive)	> 100 µM (inactive)	> 100 µM (inactive)	> 100 µM (inactive)	> 100 µM (inactive)	> 100 µM (inactive)	> 100 µM (inactive)	> 100 µM (inactive)	> 100 µM (inactive)	> 100 µM (inactive)	> 100 µM (inactive)	> 100 µM (inactive)	> 100 µM (inactive)	> 100 µM (inactive)	–	> 100 µM (inactive)	> 100 µM (inactive)	> 100 µM (inactive)	> 100 µM (inactive)
O=C(N/N=C/c1cccc(O)c1O)N/N=C/c1cccc(O)c1O	20.5 µM (inactive)	44.8 µM (inactive)	26.5 µM (inactive)	18.7 µM (inactive)	11.9 µM (inactive)	5.93 µM (inactive)	24 µM (inactive)	20.1 µM (inactive)	5.38 µM (inactive)	22.2 µM (inactive)	8.77 µM (inactive)	35.9 µM (inactive)	19.8 µM (inactive)	–	19.9 µM (inactive)	–	14 µM (inactive)	19 µM (inactive)	–	–
